Our source for the IC50 values is patent US10894784B2, “Heteroarylbenzimidazole compounds” (BAYER PHARMA AKTIENGESELLSCHAFT, priority 2015, dated 2021).

The IC50 is the point on the concentration scale where inhibition reaches its midpoint.

Where two headings read alike, the source gives them in different places.

This experiment has as its target TBK1 (Homo sapiens (Human), UniProt Q9UHD2). The experiment can be described thus: TBK1 low ATP kinase assay (in vitro assay 1). The experiment is classed as biochemical.
Where [1] appears, read: in vitro assay 1, read-out: TBK1 low ATP kinase assay IC50.

Chain of TBK1 (Q9UHD2 whole entry): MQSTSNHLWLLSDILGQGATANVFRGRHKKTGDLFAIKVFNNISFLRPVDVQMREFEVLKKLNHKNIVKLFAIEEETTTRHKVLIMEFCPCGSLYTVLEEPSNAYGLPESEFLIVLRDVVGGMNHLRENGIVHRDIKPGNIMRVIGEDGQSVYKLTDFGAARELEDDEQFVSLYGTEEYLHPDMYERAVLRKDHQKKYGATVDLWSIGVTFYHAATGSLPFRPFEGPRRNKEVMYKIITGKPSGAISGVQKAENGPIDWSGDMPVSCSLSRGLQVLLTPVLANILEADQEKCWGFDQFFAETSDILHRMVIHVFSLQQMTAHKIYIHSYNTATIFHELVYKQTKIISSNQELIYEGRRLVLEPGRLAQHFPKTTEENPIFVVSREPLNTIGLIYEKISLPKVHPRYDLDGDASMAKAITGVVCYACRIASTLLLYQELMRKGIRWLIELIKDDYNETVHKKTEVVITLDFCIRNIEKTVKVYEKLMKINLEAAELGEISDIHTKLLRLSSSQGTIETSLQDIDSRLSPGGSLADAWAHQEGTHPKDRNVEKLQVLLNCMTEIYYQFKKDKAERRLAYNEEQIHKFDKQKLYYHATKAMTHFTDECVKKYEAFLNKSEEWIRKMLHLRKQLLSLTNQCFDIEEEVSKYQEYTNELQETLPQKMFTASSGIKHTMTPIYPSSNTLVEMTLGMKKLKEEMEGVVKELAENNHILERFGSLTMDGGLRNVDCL

Consider `O=C(C1CC1)N1CCN(Cc2ccnc(Nc3nc4ccc(-c5ccnc(OCC6CC6)n5)cc4[nH]3)c2)CC1` [Example 62.01.04, cyclopropyl(4-{[2-({6-[2-(cyclopropylmethoxy)pyrimidin-4-yl]-1H-benzimidazol-2-yl}amino)pyridin-4-yl]methyl}piperazin-1-yl)methanone], for which the IC50 under setting [1] amounted to 5.19 nM.

In the case of `COc1cnccc1-c1ccc2nc(Nc3cc(CN4CCN(C(=O)C(C)(C)O)CC4)ccn3)[nH]c2c1` [Example 04.09, 2-hydroxy-1-{4-[(2-{[6-(3-methoxypyridin-4-yl)-1H-benzimidazol-2-yl]amino}pyridin-4-yl)methyl]piperazin-1-yl}-2-methylpropan-1-one], the IC50 under setting [1] turned out to be 28.5 nM. Turning to `Cc1ncc(C)c(-c2ccc3nc(Nc4cc(CN5CCN(C(=O)C6CC6)CC5)ccn4)[nH]c3c2)n1` [Example 33.03, cyclopropyl{4-[(2-{[6-(2,5-dimethylpyrimidin-4-yl)-1H-benzimidazol-2-yl]amino}pyridin-4-yl)methyl]piperazin-1-yl}methanone], the half-maximal inhibitory concentration (IC50) under setting [1] worked out at 1500 nM.

For `O=C(C1CC1)N1CCN(Cc2ccnc(Nc3nc4ccc(-c5nc(Cc6ccccc6)no5)cc4[nH]3)c2)CC1` [Example 21.01, {4-[(2-{[6-(3-benzyl-1,2,4-oxadiazol-5-yl)-1H-benzimidazol-2-yl]amino}pyridin-4-yl)methyl]piperazin-1-yl}(cyclopropyl)methanone], the 50% inhibitory concentration (IC50) under setting [1] was found to be 193 nM. On the same count and under the same terms, the same measure for `CCOc1c(-c2cnn(CC)c2)ccc2nc(Nc3cc(CN4CCN(C(=O)CC(F)(F)F)CC4)ccn3)[nH]c12` [Example 53.01, 1-{4-[(2-{[7-ethoxy-6-(1-ethyl-1H-pyrazol-4-yl)-1H-benzimidazol-2-yl]amino}pyridin-4-yl)methyl]piperazin-1-yl}-3,3,3-trifluoropropan-1-one]: 132 nM; for `CN(C)c1cnc(-c2ccc3nc(Nc4cc(CN5CCN(C(=O)CC(F)(F)F)CC5)ccn4)[nH]c3c2)cn1` [Example 144.02, 1-(4-{[2-({6-[5-(dimethylamino)pyrazin-2-yl]-1H-benzimidazol-2-yl}amino)pyridin-4-yl]methyl}piperazin-1-yl)-3,3,3-trifluoropropan-1-one]: 350 nM. On the same count and under the same terms, as for `Cc1nccc(-c2ccc3nc(Nc4cc(C(C)N5CCN(C(=O)C6CC6)CC5)ccn4)[nH]c3c2)n1` (racemic) [Example 24.04.01, (rac)-cyclopropyl{4-[1-(2-{[6-(2-methylpyrimidin-4-yl)-1H-benzimidazol-2-yl]amino}pyridin-4-yl)ethyl]piperazin-1-yl}methanone], the figure is 9.19 nM.

With `Cc1nnc(-c2ccc3nc(Nc4cc(CN5CCN(C(=O)OC(C)(C)C)CC5)ccn4)[nH]c3c2)o1` [Example 66.01.01, tert-butyl 4-[(2-{[6-(5-methyl-1,3,4-oxadiazol-2-yl)-1H-benzimidazol-2-yl]amino}pyridin-4-yl)methyl]piperazine-1-carboxylate], under setting [1], the IC50 was 33.3 nM. Take `Cc1cc(-c2ccc3nc(Nc4cc(C(C)N5CCN(C(=O)CC(F)(F)F)CC5)ccn4)[nH]c3c2)ncn1` (single isomer, unassigned) [Example 30.03.01.A, 3,3,3-trifluoro-1-{4-[(1R or 1S)-1-(2-{[6-(6-methylpyrimidin-4-yl)-1H-benzimidazol-2-yl]amino}pyridin-4-yl)ethyl]piperazin-1-yl}propan-1-one]: it took 18 nM to reach half-maximal inhibition (TBK1 low ATP kinase assay IC50, in vitro assay 1) (IC50). `Cc1nccc(-c2ccc3nc(Nc4cc(CN5CCN(C(=O)CC(F)(F)F)CC5)ccn4)[nH]c3c2)n1` [Example 24.01.01, 3,3,3-trifluoro-1-{4-[(2-{[6-(2-methylpyrimidin-4-yl)-1H-benzimidazol-2-yl]amino}pyridin-4-yl)methyl]piperazin-1-yl}propan-1-one]: the half-maximal inhibitory concentration (IC50) under setting [1] stood at 35.4 nM. On the same count and under the same terms, the same measure for `COc1cc(-c2ccc3nc(Nc4cc(CN5CCN(C(=O)CC(F)(F)F)CC5)ccn4)[nH]c3c2)nc(C)n1` [Example 176.02, 3,3,3-trifluoro-1-{4-[(2-{[6-(6-methoxy-2-methylpyrimidin-4-yl)-1H-benzimidazol-2-yl]amino}pyridin-4-yl)methyl]piperazin-1-yl}propan-1-one]: 3580 nM; for `Cc1cc(-c2ccc3nc(Nc4cc(C(C)N5CCN(C(=O)CC(F)(F)F)CC5)ccn4)[nH]c3c2Cl)ncn1` (single isomer, unassigned) [Example 98.02, 1-{4-[(1R or 1S)-1-(2-{[7-chloro-6-(6-methylpyrimidin-4-yl)-1H-benzimidazol-2-yl]amino}pyridin-4-yl)ethyl]piperazin-1-yl}-3,3,3-trifluoropropan-1-one]: 44 nM.

Take `Cc1nccc(-c2ccc3nc(Nc4cc(C(C)N5CCN(C(=O)CC6CC6)CC5)ccn4)[nH]c3c2)n1` (single isomer, unassigned) [Example 24.05.03.A, 2-cyclopropyl-1-{4-[(1R or 1S)-1-(2-{[6-(2-methylpyrimidin-4-yl)-1H-benzimidazol-2-yl]amino}pyridin-4-yl)ethyl]piperazin-1-yl}ethanone]: under setting [1], the IC50 was 45.4 nM. On the same count and under the same terms, the same measure for `CN(c1cc(-c2ccc3nc(Nc4cc(CN5CCN(C(=O)C6CC6)CC5)ccn4)[nH]c3c2)ncn1)C1CCC1` [Example 156.03, [4-({2-[(6-{6-[cyclobutyl(methyl)amino]pyrimidin-4-yl}-1H-benzimidazol-2-yl)amino]pyridin-4-yl}methyl)piperazin-1-yl](cyclopropyl)methanone]: 19 nM. Same read-out and setting: the same measure for `Cc1c(-c2ccc3nc(Nc4cc(CN5CCN(C(=O)CC(F)(F)F)CC5)ccn4)[nH]c3c2)ncnc1C(F)(F)F` [Example 183.02, 3,3,3-trifluoro-1-(4-{[2-({6-[5-methyl-6-(trifluoromethyl)pyrimidin-4-yl]-1H-benzimidazol-2-yl}amino)pyridin-4-yl]methyl}piperazin-1-yl)propan-1-one]: 2100 nM; for `CC(C)Oc1cnccc1-c1ccc2nc(Nc3cc(CN4CCN(C(=O)C5CC5)CC4)ccn3)[nH]c2c1` [Example 06.02, cyclopropyl(4-{[2-({6-[3-(propan-2-yloxy)pyridin-4-yl]-1H-benzimidazol-2-yl}amino)pyridin-4-yl]methyl}piperazin-1-yl)methanone]: 7.12 nM; for `Cc1noc(C)c1-c1cc(-c2ccc3nc(Nc4cc(CN5CCN(C(=O)CC(F)(F)F)CC5)ccn4)[nH]c3c2)ncn1` [Example 92.02, 1-(4-{[2-({6-[6-(3,5-dimethyl-1,2-oxazol-4-yl)pyrimidin-4-yl]-1H-benzimidazol-2-yl}amino)pyridin-4-yl]methyl}piperazin-1-yl)-3,3,3-trifluoropropan-1-one]: 450 nM.

With `CC(c1ccnc(Nc2nc3ccc(-c4ccncn4)cc3[nH]2)c1)N1CCN(C(=O)C2CCC2)CC1` (single isomer, unassigned) [Example 23.05.03.B, cyclobutyl{4-[(1S or 1R)-1-(2-{[6-(pyrimidin-4-yl)-1H-benzimidazol-2-yl]amino}pyridin-4-yl)ethyl]piperazin-1-yl}methanone], the half-inhibitory concentration (IC50) under setting [1] is 14.5 nM. Still for that read-out and setting: as for `CCOc1nccc(-c2ccc3nc(Nc4cc(CN5CCN(C(=O)C6CCC6)CC5)ccn4)[nH]c3c2)n1` [Example 26.01.04, cyclobutyl{4-[(2-{[6-(2-ethoxypyrimidin-4-yl)-1H-benzimidazol-2-yl]amino}pyridin-4-yl)methyl]piperazin-1-yl}methanone], the figure is 11.6 nM. Still for that read-out and setting: as for `CC(c1ccnc(Nc2nc3ccc(-c4ccncn4)cc3[nH]2)c1)N1CCN(C(=O)C2CC2)CC1` (single isomer, unassigned) [Example 23.05.01.A, cyclopropyl{4-[(1R or 1S)-1-(2-{[6-(pyrimidin-4-yl)-1H-benzimidazol-2-yl]amino}pyridin-4-yl)ethyl]piperazin-1-yl}methanone], the figure is 2.05 nM. Still for that read-out and setting: the same measure for `Cn1cc(-c2ccc3nc(Nc4cc(CN5CCN(C(=O)CC(F)(F)F)CC5)ccn4)[nH]c3c2)cn1` [Example 37.01, 3,3,3-trifluoro-1-{4-[(2-{[6-(1-methyl-1H-pyrazol-4-yl)-1H-benzimidazol-2-yl]amino}pyridin-4-yl)methyl]piperazin-1-yl}propan-1-one]: 55.3 nM. On to `COCC1CCN(S(=O)(=O)N2CCN(Cc3ccnc(Nc4nc5ccc(-c6ncncc6OC)cc5[nH]4)c3)CC2)CC1` [Example 35.01.16, N-{4-[(4-{[4-(methoxymethyl)piperidin-1-yl]sulfonyl}piperazin-1-yl)methyl]pyridin-2-yl}-6-(5-methoxypyrimidin-4-yl)-1H-benzimidazol-2-amine], for which, under setting [1], the IC50 was determined as 45.9 nM. On the same count and under the same terms, as for `COc1c(OCC2CC2)ncnc1-c1ccc2nc(Nc3cc(CN4CCN(C(=O)CC(F)(F)F)CC4)ccn3)[nH]c2c1` [Example 65.01.02, 1-(4-{[2-({6-[6-(cyclopropylmethoxy)-5-methoxypyrimidin-4-yl]-1H-benzimidazol-2-yl}amino)pyridin-4-yl]methyl}piperazin-1-yl)-3,3,3-trifluoropropan-1-one], the figure is 58.4 nM. On the same count and under the same terms, the same measure for `COc1c(-c2ccc3nc(Nc4cc(C(C)N5CCN(C(=O)OC(C)(C)C)CC5)ccn4)[nH]c3c2)ncnc1N1CCCC1` (single isomer, unassigned) [Example 112.01, tert-butyl 4-{(1R or S)-1-[2-({6-[5-methoxy-6-(pyrrolidin-1-yl)pyrimidin-4-yl]-1H-benzimidazol-2-yl}amino)pyridin-4-yl]ethyl}piperazine-1-carboxylate]: 8.2 nM. Still for that read-out and setting: as for `COc1c(-c2ccc3nc(Nc4cc(CN5CCN(C(=O)C6CC6)CC5)ccn4)[nH]c3c2)ncnc1N(C)CC1CC1` [Example 110.02, cyclopropyl[4-({2-[(6-{6-[(cyclopropylmethyl)(methyl)amino]-5-methoxypyrimidin-4-yl}-1H-benzimidazol-2-yl)amino]pyridin-4-yl}methyl)piperazin-1-yl]methanone], the figure is 30 nM; as for `Cc1cc(-c2ccc3nc(Nc4cc(C(C)N5CCN(C(=O)C6CC6)CC5)ccn4)[nH]c3c2Cl)ncn1` (centres unmarked) [Example 98.03, {4-[(1R or IS)-1-(2-{[7-chloro-6-(6-methylpyrimidin-4-yl)-1H-benzimidazol-2-yl]amino}pyridin-4-yl)ethyl]piperazin-1-yl}(cyclopropyl)methanone], 76 nM.
